# Assay results: patent US12116564B2, “Cells expressing recombinant growth factor receptors” (INSTIL BIO (UK) LIMITED, priority 2015, dated 2024)
# B1: Tpo: recombinant human Tpo (Miltenyi Biotec), native ligand of the thrombopoietin receptor (protein)
# chain: SPAPPACDLRVLSKLLRDSHVLHSRLSQCPEVHPLPTPVLLPAVDFSLGEWKTQMEETKAQDILGAVTLLLEGVMAARGQLGPTCLSSLLGQLSGQVRLLLGALQSLLGTQLPPQGRTTAHKDPNAIFLSFQHLLRGKVRFLMLVGGSTLCVRRAPPTTAVPSRTSLVLTLNEL
# Legend:
# [1] = test system: melanoma TIL transduced with WT TpoR; assay: Enrichment of TpoR+ cells in WT TpoR transduced melanoma tumour infiltrating lymphocytes; type: cell-based, human; settings: for TpoR+ cells after enrichment: from 65% TpoR+
# Procedure: FIG. 12—Analysis of WT TpoR activity in Melanoma Tumour Infiltrating Lymphocytes. Tumour infiltrating lymphocytes (TIL) established from a cutaneous melanoma lesion were lentivirally transduced with the WT TpoR rGFR. The TIL were incubated in the presence of 200 IU/ml IL2 or the indicated concentrations of Tpo or Eltrombopag. At days 2 and 5 cells were removed, stained with PE conjugated anti-CD110 antibodies and analysed using a MACSQuant analyser.
# Next we aimed to determine whether the WT TpoR was functionally active in Tumour Infiltrating Lymphocytes (TIL). It was possible that the high doses of IL2 used to generate TIL cultures could make them more dependent on IL2 for subsequent growth. To this end we added lentiviral supernatants to melanoma TIL cultures. Cells were transduced to 65% (FIG. 12). The TILs were cultured in the presence of 200 IU/ml IL-2, or Eltrombopag or Tpo. Cells were analysed for TpoR expression at days 2 and 5. […] In contrast there was no enrichment of TpoR+ cells in the presence of IL2 supporting the notion that this is driven by signals through the TpoR.
# [2] = test system: primary human T-cells harbouring the WT TpoR; assay: Enrichment of TpoR+ cells (anti-CD110 flow cytometry), WT TpoR T-cells diluted to 20% transduction; type: cell-based; settings: for TpoR positive cells after enrichment: start 20% transduced, up to nine days
# Procedure: (§1) FIG. 6—Enrichment kinetics of modular T-cell growth signal receptor engineered T-cells to varying concentrations of IL-2, Eltrombopag (Elt) or thrombopoietin (Tpo). Transduced primary human T-cells were diluted with non-transduced cells to a 20% transduction level. Cells were incubated with the indicated concentrations of each drug and the enrichment of each population established at the indicated time points by staining cells with anti-CD110-PE antibodies. Following expansion cells were washed excessively to remove any exogenous IL2 and plated into 96-well U-bottom plates. Cells were supplemented with IL2 (Proleukin), recombinant human Tpo (Miltenyi Biotec) or Eltrombopag (Stratech Scientific, Suffolk, UK). At various time points thereafter cells were either stained with a 1:400 dilution of eFlor-450 fixable viability dye (eBioscience, UK) and counted directly from the wells using a MACSQuant Cytometer, or were stained with viability dye plus phycoerythrin conjugated anti-CD110 antibodies (Miltenyi Biotec, UK) and analysed using a MACSQuant cytomter. Cell viability and/or transduction level was then analysed using MACSQuantify software (Miltenyi Biotec, UK). Additional cells were diluted with non-transduced cells to achieve a population with 20% transduction efficiency. […] After three, six and nine days the cells were stained with anti-CD110 (TpoR) antibodies and analysed by flow cytometry.
# [3] = test system: WT TpoR transduced primary human T-cells; type: cell-based; settings: for response in relative increase of cell number as concentration increases: varying concentrations, three and five days
# Procedure: Transduced primary human T-cells were incubated with the indicated concentrations of each drug and cells counted after three and five days
# Following expansion cells were washed excessively to remove any exogenous IL2 and plated into 96-well U-bottom plates. Cells were supplemented with IL2 (Proleukin), recombinant human Tpo (Miltenyi Biotec) or Eltrombopag (Stratech Scientific, Suffolk, UK). At various time points thereafter cells were either stained with a 1:400 dilution of eFlor-450 fixable viability dye (eBioscience, UK) and counted directly from the wells using a MACSQuant Cytometer, or were stained with viability dye plus phycoerythrin conjugated anti-CD110 antibodies (Miltenyi Biotec, UK) and analysed using a MACSQuant cytomter. Cell viability and/or transduction level was then analysed using MACSQuantify software (Miltenyi Biotec, UK).
# After three and five days the cells were stained with EFlor-450 Live/dead fixable viability dye and the cells in each well counted by flow cytometry.
# [4] = test system: primary human T-cells harbouring the mt TpoR; assay: Enrichment of TpoR+ cells (anti-CD110 flow cytometry), mt (truncated) TpoR T-cells diluted to 20% transduction; type: cell-based; settings: for TpoR positive cells after enrichment: start 20% transduced, up to nine days
# Procedure: as §1
# [5] = 73 healthy volunteers, higher doses; cited from earlier work
# [6] = test system: Ba/F3 cells transduced with F104S TpoR variant; assay: Enrichment of transduced Ba/F3 cells, F104S TpoR; type: cell-based, murine; settings: 0.5 μM Eltrombopag or 1.0 μM Tpo; days 3, 5 and 7
# Procedure: (§2) FIG. 10—Analysis of rGFR variants in Ba/F3 cells. The IL3 dependent cell line Ba/F3 was transduced with the indicated rGFR variants and incubated in the presence of 1 μM Tpo, 0.5 μM Eltrombopag or 0.5 ng/ml IL3. Cells were taken at days 3, 5 and 7 stained with PE conjugated anti-CD110 antibodies and analysed using a MACSQuant analyser.
# (§3) To determine whether the new variants generated were functionally active we transduced the IL3 dependent cell line Ba/F3 and incubated the cells with either IL-3, 0.5 μM Eltrombopag or 1.0 μM Tpo and measured the proportion of cells expressing the indicated TpoR at days 3, 5 and 7.
# [7] = test system: Ba/F3 cells transduced with TpoR-HGHR variant; assay: Enrichment of transduced Ba/F3 cells, TpoR-HGHR; type: cell-based, murine; settings: 0.5 μM Eltrombopag or 1.0 μM Tpo; days 3, 5 and 7
# Procedure: as §2, §3
# [8] = test system: Ba/F3 cells transduced with TpoR-PrIR variant; assay: Enrichment of transduced Ba/F3 cells, TpoR-PrIR; type: cell-based, murine; settings: 0.5 μM Eltrombopag or 1.0 μM Tpo; days 3, 5 and 7; compared with the other variants
# Procedure: as §2, §3
# TpoR F104S = biological target: T1, TpoR F104S (Homo sapiens, UniProt P40238, F104S); settings: Fox et al 2010; cited from earlier work
# T1 sequence (P40238 26-635 F104S): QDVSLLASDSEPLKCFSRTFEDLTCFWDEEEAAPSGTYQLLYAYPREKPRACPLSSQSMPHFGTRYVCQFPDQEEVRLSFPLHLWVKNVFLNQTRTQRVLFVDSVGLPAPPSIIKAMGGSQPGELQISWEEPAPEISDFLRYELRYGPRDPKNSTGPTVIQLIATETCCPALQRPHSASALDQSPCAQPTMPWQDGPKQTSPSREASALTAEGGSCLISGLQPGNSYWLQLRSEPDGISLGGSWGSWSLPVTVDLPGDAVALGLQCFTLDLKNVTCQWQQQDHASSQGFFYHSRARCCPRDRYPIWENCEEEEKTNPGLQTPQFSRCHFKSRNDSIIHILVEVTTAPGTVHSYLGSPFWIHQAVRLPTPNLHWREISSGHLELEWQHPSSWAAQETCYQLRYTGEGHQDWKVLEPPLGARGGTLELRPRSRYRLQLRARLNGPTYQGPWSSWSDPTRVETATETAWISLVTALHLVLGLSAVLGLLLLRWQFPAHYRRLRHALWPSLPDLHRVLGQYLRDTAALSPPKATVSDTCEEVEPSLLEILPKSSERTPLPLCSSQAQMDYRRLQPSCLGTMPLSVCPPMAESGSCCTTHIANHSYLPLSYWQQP
# [9] = test system: Ba/F3 cells transduced with WT TpoR; assay: Enrichment of transduced Ba/F3 cells, WT TpoR; type: cell-based, murine; settings: 0.5 μM Eltrombopag or 1.0 μM Tpo; days 3, 5 and 7
# Procedure: as §2, §3
molecule,measurement,setting,value
CC1=NN(c2ccc(C)c(C)c2)C(=O)/C1=N\Nc1cccc(-c2cccc(C(=O)O)c2)c1O [Eltrombopag],TpoR+ cells after enrichment,[1]; high (1.0 μM) Eltrombopag,90%
same,TpoR+ cells after enrichment,[1]; low (0.1 μM) Eltrombopag,89%
same,TpoR positive cells after enrichment,[2]; 0.5 μM Eltrombopag,83.5%
same,concentration at which responses (relative increase of cell number) are maximal,"[3]; 94% transduced, 5×10^4 cells/well, counted after three and five days",around 0.1 μM
same,toxicity to the T-cells,[3]; concentrations above around 0.1 μM,becoming toxic
same,TpoR positive cells after enrichment,[4]; 0.5 μM Eltrombopag,66.6%
same,tolerability,[5],without tolerability problems
"IL-2: IL2 (Proleukin), cytokine normally required for optimal T-cell growth",enrichment of TpoR+ cells,[1]; 200 IU/ml IL-2,no enrichment
same,enrichment of TpoR positive cells over time,[2]; 100 IU/ml IL-2 alone,did not become enriched over time
same,response in relative increase of cell number as concentration increases,[3],dose dependent responses
same,enrichment of TpoR positive cells over time,[4]; 100 IU/ml IL-2 alone,did not become enriched over time
B1,enrichment of transduced cells,[6],much reduced activity
same,functional activity (enrichment of transduced cells),[7],functional activity
same,functional activity (enrichment of transduced cells),[8],less robust responses
same,enrichment of TpoR+ T-cells,[1]; high (1 μM) Tpo,able to induce enrichment
same,TpoR positive cells after enrichment,[2]; 10.0 μM Tpo,87.5%
same,effect of the F104S extracellular point mutation on responsiveness to the ligand,TpoR F104S,prevent responsiveness
same,maximal response compared with Eltrombopag or IL-2,[3]; possibly optimal concentrations not used,did not see maximal responses to Tpo comparable to those seen with Eltrombopag or IL-2
same,response in relative increase of cell number as concentration increases,[3],dose dependent responses
same,enrichment of transduced cells,[9],able to support the enrichment of transduced cells
same,TpoR positive cells after enrichment,[4]; 10.0 μM Tpo,77.9%
